Assays:
[1] = molecular target: Leucine-rich repeat serine/threonine-protein kinase 2 (Homo sapiens) (UniProt Q5S007); test: Inhibition of human LRRK2 using RLGRDKYKTLRQIRQ as substrate at 1 uM in presence of 32P-ATP by Hotspot assay relative to control; values are per cent of control
[2] = molecular target: Mitogen-activated protein kinase 1 (Homo sapiens) (UniProt P28482); test: Inhibition of human ERK2/MAPK1 using myelin basic protein as substrate at 1 uM in presence of 32P-ATP by Hotspot assay relative to control; values are per cent of control
[3] = molecular target: Casein kinase I isoform epsilon (Homo sapiens) (UniProt P49674); test: Inhibition of human CK1epsilon using KRRRAL[pS]VASLPGL as substrate at 1 uM in presence of 32P-ATP by Hotspot assay relative to control; values are per cent of control
[4] = molecular target: Mitogen-activated protein kinase kinase kinase kinase 4 (Homo sapiens) (UniProt O95819); test: Inhibition of human HGK/MAP4K4 using myelin basic protein as substrate at 1 uM in presence of 32P-ATP by Hotspot assay relative to control; values are per cent of control
[5] = molecular target: CDK3/Cyclin E (Homo sapiens) (UniProt P24864+Q00526); test: Inhibition of human CDK3/cyclin E using RB Protein as substrate at 1 uM in presence of 32P-ATP by Hotspot assay relative to control; values are per cent of control
[6] = molecular target: Homeodomain-interacting protein kinase 3 (Homo sapiens) (UniProt Q9H422); test: Inhibition of human HIPK3 using myelin basic protein as substrate at 1 uM in presence of 32P-ATP by Hotspot assay relative to control; values are per cent of control
[7] = molecular target: T1, Serine/threonine-protein kinase A-Raf (Homo sapiens) (UniProt P10398); test: Inhibition of human ARAF using MEK1 (K97R) as substrate at 1 uM in presence of 32P-ATP by Hotspot assay relative to control; values are per cent of control
T1 sequence (whole entry): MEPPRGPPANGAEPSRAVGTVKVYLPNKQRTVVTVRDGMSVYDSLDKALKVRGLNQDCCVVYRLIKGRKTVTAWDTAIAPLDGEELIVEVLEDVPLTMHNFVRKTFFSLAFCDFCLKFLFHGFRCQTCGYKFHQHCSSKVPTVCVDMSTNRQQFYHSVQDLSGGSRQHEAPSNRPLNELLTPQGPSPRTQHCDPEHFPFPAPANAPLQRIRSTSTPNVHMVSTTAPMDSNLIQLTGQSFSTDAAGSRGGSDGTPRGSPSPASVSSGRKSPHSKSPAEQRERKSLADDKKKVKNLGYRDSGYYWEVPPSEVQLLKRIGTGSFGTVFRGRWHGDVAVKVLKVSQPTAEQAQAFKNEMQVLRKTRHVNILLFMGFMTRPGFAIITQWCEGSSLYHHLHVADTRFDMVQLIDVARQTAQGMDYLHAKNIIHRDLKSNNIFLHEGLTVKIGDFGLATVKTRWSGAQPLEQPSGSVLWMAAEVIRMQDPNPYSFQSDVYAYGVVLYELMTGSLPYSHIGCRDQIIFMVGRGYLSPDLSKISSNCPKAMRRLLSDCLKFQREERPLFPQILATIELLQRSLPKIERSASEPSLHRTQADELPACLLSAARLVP

[8] = molecular target: Serine/threonine-protein kinase 16 (Homo sapiens) (UniProt O75716); test: Inhibition of human STK16 using myelin basic protein as substrate at 1 uM in presence of 32P-ATP by Hotspot assay relative to control; values are per cent of control
[9] = molecular target: Mast/stem cell growth factor receptor Kit (Homo sapiens) (UniProt P10721); test: Residual activity of human c-Kit using poly[Glu:Tyr] (4:1) as substrate at 1 uM in presence of 32P-ATP by Hotspot assay relative to control
[10] = molecular target: SRSF protein kinase 1 (Homo sapiens) (UniProt Q96SB4); test: Residual activity of human SRPK1 using GRSRSRSRSR as substrate at 1 uM in presence of 32P-ATP by Hotspot assay relative to control
[11] = molecular target: Proto-oncogene tyrosine-protein kinase ROS (Homo sapiens) (UniProt P08922); test: Inhibition of human ROS/ROS1 using KKKSPGEYVNIEFG as substrate at 1 uM in presence of 32P-ATP by Hotspot assay relative to control; values are per cent of control
[12] = molecular target: Ribosomal protein S6 kinase beta-1 (Homo sapiens) (UniProt P23443); test: Inhibition of human p70S6K/RPS6KB1 using KKRNRTLTK as substrate at 1 uM in presence of 32P-ATP by Hotspot assay relative to control; values are per cent of control
[13] = molecular target: CDK4/Cyclin D3 (Homo sapiens) (UniProt P11802+P30281); test: Inhibition of human CDK4/cyclin D3 using RB-CTF as substrate at 1 uM in presence of 32P-ATP by Hotspot assay relative to control; values are per cent of control
[14] = molecular target: Casein kinase I isoform gamma-3 (Homo sapiens) (UniProt Q9Y6M4); test: Inhibition of human CK1g3 using KRRRAL[pS]VASLPGL as substrate at 1 uM in presence of 32P-ATP by Hotspot assay relative to control; values are per cent of control
[15] = molecular target: Dual specificity mitogen-activated protein kinase kinase 2 (Homo sapiens) (UniProt P36507); test: Inhibition of human MEK2 using ERK2 (K52R) as substrate at 1 uM in presence of 32P-ATP by Hotspot assay relative to control; values are per cent of control
Dual specificity mitogen-activated protein kinase kinase 2 (Homo sapiens), sequence (P36507 whole entry): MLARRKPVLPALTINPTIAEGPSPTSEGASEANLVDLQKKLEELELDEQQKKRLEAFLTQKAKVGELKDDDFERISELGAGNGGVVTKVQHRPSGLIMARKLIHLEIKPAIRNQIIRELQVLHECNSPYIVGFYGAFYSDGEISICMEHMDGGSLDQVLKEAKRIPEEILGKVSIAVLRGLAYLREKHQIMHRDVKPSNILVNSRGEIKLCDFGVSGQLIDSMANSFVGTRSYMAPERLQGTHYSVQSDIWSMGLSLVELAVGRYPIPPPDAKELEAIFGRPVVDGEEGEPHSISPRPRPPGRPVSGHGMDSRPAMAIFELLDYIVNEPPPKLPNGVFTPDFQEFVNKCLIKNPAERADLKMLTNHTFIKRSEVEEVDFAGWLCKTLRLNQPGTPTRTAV

CDK3/Cyclin E (Homo sapiens), sequence (P24864 whole entry, looked up): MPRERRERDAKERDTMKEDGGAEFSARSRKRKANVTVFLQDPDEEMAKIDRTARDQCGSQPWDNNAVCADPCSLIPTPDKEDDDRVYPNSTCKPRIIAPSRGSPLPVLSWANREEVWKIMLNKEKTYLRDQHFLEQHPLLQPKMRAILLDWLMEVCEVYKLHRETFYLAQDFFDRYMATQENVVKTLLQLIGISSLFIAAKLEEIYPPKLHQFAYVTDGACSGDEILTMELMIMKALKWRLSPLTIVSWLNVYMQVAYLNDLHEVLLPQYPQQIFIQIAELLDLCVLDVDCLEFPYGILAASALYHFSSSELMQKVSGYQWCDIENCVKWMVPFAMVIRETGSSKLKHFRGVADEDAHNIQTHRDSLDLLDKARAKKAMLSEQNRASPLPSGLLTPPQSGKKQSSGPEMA
CDK3/Cyclin E (Homo sapiens), sequence (Q00526 whole entry, looked up): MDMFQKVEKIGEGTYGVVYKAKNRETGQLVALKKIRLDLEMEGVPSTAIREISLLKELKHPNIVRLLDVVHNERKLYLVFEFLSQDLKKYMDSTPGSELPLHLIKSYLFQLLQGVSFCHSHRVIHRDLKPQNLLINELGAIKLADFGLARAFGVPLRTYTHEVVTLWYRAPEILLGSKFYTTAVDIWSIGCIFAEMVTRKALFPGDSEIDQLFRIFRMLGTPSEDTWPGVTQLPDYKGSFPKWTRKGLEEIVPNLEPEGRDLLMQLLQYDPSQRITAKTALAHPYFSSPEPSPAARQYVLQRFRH
Casein kinase I isoform gamma-3 (Homo sapiens), sequence (Q9Y6M4 whole entry, looked up, canonical isoform): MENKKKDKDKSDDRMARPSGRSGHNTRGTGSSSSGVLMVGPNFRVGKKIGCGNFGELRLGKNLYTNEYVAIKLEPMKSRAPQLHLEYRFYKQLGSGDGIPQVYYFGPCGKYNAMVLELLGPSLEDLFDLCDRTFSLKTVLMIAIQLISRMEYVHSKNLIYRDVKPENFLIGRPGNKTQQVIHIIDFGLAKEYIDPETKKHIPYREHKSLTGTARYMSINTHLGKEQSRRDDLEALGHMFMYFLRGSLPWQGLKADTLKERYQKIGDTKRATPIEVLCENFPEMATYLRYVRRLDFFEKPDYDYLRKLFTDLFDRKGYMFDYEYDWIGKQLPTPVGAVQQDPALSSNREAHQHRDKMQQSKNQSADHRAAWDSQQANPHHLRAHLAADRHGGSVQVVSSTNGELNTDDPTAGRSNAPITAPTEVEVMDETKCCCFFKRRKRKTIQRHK
Mast/stem cell growth factor receptor Kit (Homo sapiens), sequence (P10721 whole entry): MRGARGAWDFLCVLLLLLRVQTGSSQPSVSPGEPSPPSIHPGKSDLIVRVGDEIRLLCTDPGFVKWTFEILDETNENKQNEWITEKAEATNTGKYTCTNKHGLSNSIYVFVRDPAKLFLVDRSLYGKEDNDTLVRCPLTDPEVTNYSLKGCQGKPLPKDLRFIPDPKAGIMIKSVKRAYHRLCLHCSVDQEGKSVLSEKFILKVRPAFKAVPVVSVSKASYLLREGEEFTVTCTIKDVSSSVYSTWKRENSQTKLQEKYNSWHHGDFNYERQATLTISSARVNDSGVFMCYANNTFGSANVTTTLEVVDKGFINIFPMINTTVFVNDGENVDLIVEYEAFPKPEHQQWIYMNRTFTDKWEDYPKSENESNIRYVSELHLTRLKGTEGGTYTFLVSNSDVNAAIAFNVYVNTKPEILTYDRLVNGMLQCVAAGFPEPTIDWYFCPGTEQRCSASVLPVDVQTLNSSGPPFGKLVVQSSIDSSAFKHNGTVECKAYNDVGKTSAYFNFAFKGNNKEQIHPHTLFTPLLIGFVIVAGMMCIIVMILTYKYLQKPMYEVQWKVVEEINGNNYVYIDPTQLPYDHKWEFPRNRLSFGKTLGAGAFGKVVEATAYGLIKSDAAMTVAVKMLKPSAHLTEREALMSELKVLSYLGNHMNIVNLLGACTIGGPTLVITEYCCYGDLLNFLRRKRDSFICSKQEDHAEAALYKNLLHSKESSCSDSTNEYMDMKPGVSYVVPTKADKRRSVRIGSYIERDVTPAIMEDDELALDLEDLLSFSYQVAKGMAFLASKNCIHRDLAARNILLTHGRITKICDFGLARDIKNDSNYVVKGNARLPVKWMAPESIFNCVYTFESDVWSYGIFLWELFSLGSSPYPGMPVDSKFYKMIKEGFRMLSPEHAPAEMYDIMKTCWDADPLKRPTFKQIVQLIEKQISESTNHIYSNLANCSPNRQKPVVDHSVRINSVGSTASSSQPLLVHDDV
Casein kinase I isoform epsilon (Homo sapiens), sequence (P49674 whole entry, looked up, canonical isoform): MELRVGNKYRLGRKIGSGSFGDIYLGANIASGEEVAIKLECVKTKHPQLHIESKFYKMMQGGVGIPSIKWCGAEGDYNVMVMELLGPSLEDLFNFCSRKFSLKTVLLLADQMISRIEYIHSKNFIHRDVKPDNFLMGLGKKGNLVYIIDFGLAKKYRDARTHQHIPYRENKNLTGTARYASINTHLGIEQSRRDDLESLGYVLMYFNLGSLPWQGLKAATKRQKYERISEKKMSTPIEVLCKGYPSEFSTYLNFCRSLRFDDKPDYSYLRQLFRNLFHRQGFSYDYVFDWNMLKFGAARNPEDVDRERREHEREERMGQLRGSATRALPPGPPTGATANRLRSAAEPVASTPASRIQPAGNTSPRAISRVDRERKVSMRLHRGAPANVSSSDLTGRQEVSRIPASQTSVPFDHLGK
Serine/threonine-protein kinase 16 (Homo sapiens), sequence (O75716 whole entry): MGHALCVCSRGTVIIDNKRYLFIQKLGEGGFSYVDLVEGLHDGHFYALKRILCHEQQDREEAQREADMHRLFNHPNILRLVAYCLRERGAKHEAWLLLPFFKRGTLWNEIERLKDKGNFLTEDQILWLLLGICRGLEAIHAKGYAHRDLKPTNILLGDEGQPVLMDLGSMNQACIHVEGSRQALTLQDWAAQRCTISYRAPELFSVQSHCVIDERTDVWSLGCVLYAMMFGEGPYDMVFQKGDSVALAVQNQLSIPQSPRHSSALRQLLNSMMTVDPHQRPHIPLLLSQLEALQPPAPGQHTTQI
Ribosomal protein S6 kinase beta-1 (Homo sapiens), sequence (P23443 whole entry, looked up): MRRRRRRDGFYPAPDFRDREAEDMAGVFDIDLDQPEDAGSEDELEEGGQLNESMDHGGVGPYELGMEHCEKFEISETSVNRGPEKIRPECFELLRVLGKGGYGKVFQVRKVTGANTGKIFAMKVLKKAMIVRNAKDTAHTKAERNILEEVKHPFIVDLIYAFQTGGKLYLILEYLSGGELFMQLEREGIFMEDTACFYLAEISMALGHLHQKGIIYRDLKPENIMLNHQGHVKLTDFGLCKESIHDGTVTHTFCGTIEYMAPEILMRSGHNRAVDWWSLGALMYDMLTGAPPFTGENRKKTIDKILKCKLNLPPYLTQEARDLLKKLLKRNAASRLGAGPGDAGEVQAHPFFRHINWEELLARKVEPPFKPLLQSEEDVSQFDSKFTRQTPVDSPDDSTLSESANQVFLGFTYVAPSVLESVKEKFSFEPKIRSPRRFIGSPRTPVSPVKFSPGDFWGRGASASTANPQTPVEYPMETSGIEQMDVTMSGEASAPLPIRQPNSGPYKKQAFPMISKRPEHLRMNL
Mitogen-activated protein kinase kinase kinase kinase 4 (Homo sapiens), sequence (O95819 2-1239 limits assumed): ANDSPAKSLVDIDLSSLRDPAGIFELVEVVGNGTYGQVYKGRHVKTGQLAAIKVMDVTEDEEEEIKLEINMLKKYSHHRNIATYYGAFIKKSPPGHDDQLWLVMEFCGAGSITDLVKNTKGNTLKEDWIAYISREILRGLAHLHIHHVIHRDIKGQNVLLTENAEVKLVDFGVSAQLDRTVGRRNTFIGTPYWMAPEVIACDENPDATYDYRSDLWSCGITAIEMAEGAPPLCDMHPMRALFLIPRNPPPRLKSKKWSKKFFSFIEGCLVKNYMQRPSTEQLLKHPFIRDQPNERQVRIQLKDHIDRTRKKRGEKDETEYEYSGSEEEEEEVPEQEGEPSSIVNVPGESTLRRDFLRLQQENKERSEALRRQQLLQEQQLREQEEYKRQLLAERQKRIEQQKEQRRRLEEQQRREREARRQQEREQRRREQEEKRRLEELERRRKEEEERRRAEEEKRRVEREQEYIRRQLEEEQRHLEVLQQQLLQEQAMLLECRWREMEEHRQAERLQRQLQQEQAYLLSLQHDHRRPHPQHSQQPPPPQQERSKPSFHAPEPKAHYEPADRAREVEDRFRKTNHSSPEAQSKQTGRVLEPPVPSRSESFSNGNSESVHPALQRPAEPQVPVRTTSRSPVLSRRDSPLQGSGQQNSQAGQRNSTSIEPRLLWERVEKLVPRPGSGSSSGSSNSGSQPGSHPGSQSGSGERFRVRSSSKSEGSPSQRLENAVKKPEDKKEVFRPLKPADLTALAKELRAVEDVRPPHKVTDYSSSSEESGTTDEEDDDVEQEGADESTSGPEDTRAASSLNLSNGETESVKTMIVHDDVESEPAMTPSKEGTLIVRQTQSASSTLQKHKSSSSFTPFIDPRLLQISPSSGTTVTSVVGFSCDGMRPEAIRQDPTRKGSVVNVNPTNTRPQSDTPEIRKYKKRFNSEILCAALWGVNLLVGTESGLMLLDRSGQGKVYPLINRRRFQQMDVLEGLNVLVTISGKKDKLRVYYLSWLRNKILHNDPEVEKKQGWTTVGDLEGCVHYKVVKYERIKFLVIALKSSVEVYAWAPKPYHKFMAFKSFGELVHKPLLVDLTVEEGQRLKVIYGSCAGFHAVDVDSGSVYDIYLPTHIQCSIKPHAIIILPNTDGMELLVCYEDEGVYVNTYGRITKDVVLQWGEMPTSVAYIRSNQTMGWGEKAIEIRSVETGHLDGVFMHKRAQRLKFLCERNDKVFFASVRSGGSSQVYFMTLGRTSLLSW

Compound	residual activity [1] [%]	residual activity [2] [%]	residual activity [3] [%]	residual activity [4] [%]	residual activity [5] [%]	residual activity [6] [%]	residual activity [7] [%]	residual activity [8] [%]	residual activity [9] [%]	residual activity [10] [%]	residual activity [11] [%]	residual activity [12] [%]	residual activity [13] [%]	residual activity [14] [%]	residual activity [15] [%]
CNC(=O)c1ccc2c(c1)ncn2-c1ccc(CC(=O)OC(C)(C)C)cc1	94.5	99.8	94.2	102	92.4	102	93.2	85.4	74.4	112	99	99.1	98.2	97.5	98.3
Cc1cc(-c2cnc(N)c3c(-c4ccc5scnc5c4)csc23)n(C)n1	88.5	109	73	21.2	87.6	101	65.3	97.6	41.5	95.3	78.1	93.6	108	88.2	97.8
CC(C)S(=O)(=O)c1ccc2nccc(Nc3ccc4scnc4c3)c2c1	90.5	94.6	106	83	88.5	104	45.7	98.8	95.8	104	89.6	108	102	103	105
